# According to patent publication US4640916A, “1,4-benzothiazine derivatives, compositions containing them and method of use” (priority 1984, dated 1987):
# Structures can show the parent of a compound that is named as a salt. Where two headings read alike, the source gives them in different places.
# What was measured:
# [1] = system: contraction of the aorta strip caused by KCl; assay: Vasodilating action: inhibition of contraction of rabbit aorta strip caused by KCl; format: cell-based; details: Oryctolagus cuniculus, compound 10^-5 M, KCl 60 mM, 15 min pretreatment, read-out: Inhibitory percent against contraction, KCl
# Procedure: (§1) A spiral strip of aorta of a rabbit (2-3 mm width, about 3 cm length) was allowed to equilibrate by hanging under 2 g force in a Krebs-Henseleit solution. The solution was saturated with a mixture gas of 97% O2 --3% CO2 which was warmed to 37° C. Inhibitory actions of compounds (10^-5 M) of this invention against contraction of the aorta strip caused by KCl (60 mM), norepinephrine (NE) (10^-6 M) or serotonin (5--HT) (10^-6 M), by treating the strip with a compound of this invention 15 minutes before the test, are shown in Table 1 as inhibitory percent.
# [2] = system: contraction of the aorta strip caused by norepinephrine (NE); assay: Vasodilating action: inhibition of contraction of rabbit aorta strip caused by norepinephrine (NE); format: cell-based; details: Oryctolagus cuniculus, compound 10^-5 M, NE 10^-6 M, 15 min pretreatment, read-out: Inhibitory percent against contraction, NE
# Procedure: as §1
# [3] = system: contraction of the aorta strip caused by serotonin (5--HT); assay: Vasodilating action: inhibition of contraction of rabbit aorta strip caused by serotonin (5-HT); format: cell-based; details: Oryctolagus cuniculus, compound 10^-5 M, 5-HT 10^-6 M, 15 min pretreatment, read-out: Inhibitory percent against contraction, 5-HT
# Procedure: as §1
# [4] = system: spontaneously hypertensive rats; assay: Antihypertensive action in spontaneously hypertensive rats (tail-cuff); format: in vivo; details: 1 h after administration
# Procedure: Male 12 to 13 weeks old spontaneously hypertensive rats with about 200 mm Hg of blood pressure were used in groups of 3 individuals. Mean arterial blood pressures of these animals were measured by the tail-cuff method, then the animals were orally given 3-60 mg/kg of each test compound of this invention as 2 ml of its suspension in gum arabic. Blood pressure measurements were made again one hour after administration of each test compound.
# [5] = system: contraction depending on intracellular Ca^++; assay: Intracellular Ca++ antagonism: inhibition of phenylephrine contraction of aorta strip in Ca++-free EGTA solution; format: cell-based, rabbit; details: Oryctolagus cuniculus; compound 10^-6 M; phenylephrine 10^-6 M; Ca++ 0 mM, EGTA 5 mM; read-out: Inhibitory percent (contraction depending on intracellular Ca++)
# Procedure: A spiral strip of aorta of a rabbit (2-3 mm width, about 3 cm length) was allowed to equilibrate by hanging under 2 g force in a Krebs-Henseleit solution. The solution was saturated with a mixture gas 97% O2 --3% CO2, which was warmed to 37° C. The strip was moved into another Krebs-Henseleit solution containing Ca^++ OmM and EGTA 5 mM. Five minutes later, phenylephrine (10^-6 M) was added on the solution. The resulting contraction of the strip was made as the index of the contraction depending on intracellular Ca^++.
SMILES,inhibition at 10 µM [1] [%],inhibition at 10 µM [2] [%],inhibition at 10 µM [3] [%],Antihypertensive effect (difference of blood pressure before and after medication) ([4]; 30 mg/Kg oral),inhibition at 1 µM [5] [%],inhibition at 10 µM ([2]; 0.25 h) [%],Antihypertensive effect (difference of blood pressure before and after medication) ([4]; 10 mg/Kg oral),Antihypertensive effect (difference of blood pressure before and after medication) ([4]; 60 mg/Kg oral)
COc1ccccc1N1CCN(CCCC2Sc3ccc(Cl)cc3NC2=O)CC1 (stereo not shown) [Example 8],34,100,18,,,,,
Cc1cc(C)c2c(c1)SC(CCCN1CCN(c3ccc(F)cc3)CC1)C(=O)N2 (stereo not shown) [Example 11],70,95,67,49 ΔmmHg,97,,,
"CN1C(=O)C(CCN2CCN(c3ccc(F)cc3)CC2)Sc2ccccc21 (stereo not shown) [Example 30, 2-[2-[4(4-fluorophenyl)-1-piperazinyl]ethyl]-4-methyl-2H-1,4-benzothiazin-3(4H)-one]",42,,100,40 ΔmmHg,,90,,
COc1ccccc1N1CCN(CCCC2Sc3cc(C)cc(C)c3NC2=O)CC1 (stereo not shown) [Example 22],62,100,15,39 ΔmmHg,100,,,
O=C1Nc2ccccc2SC1CCN1CCN(c2ccccc2)CC1 (stereo not shown) [Example 27],20,100,100,,,,,
"O=C1Nc2cc3c(cc2SC1CCCN1CCN(c2ccc(F)cc2)CC1)OCO3 (stereo not shown) [Example 45, 6-[3-[4-(4-fluorophenyl)-1-piperazinyl]propyl]-6H-1,3-dioxolo[4,5-g][1,4]benzothiazin-7(8H)-one.dihydrochloride]",,,,30 ΔmmHg,,,,
COc1ccccc1N1CCN(CCCC2Sc3cc(C)ccc3NC2=O)CC1 (stereo not shown) [Example 21],32,100,56,,,,,
COc1ccccc1N1CCN(CCC2Sc3ccccc3NC2=O)CC1 (stereo not shown) [Example 28],15,100,100,29 ΔmmHg,,,,
"CCN1C(=O)C(CCN2CCN(c3ccccc3OC)CC2)Sc2ccccc21 (stereo not shown) [Example 36, 4-ethyl-2-[2-[4-(2-methoxyphenyl)-1-piperazinyl]ethyl]-2H-1,4-benzothiazin-3(4H)-one]",15,,100,,,100,,
O=C1Nc2ccccc2SC1CCCN1CCN(c2ccccc2)CC1 (stereo not shown) [Example 2],70,100,97,43 ΔmmHg,,,,
Cc1ccc2c(c1C)NC(=O)C(CCCN1CCN(c3ccc(F)cc3)CC1)S2 (stereo not shown) [Example 42],,,,28 ΔmmHg,,,,
Cc1ccc(N2CCN(CCCC3Sc4cccc(C)c4NC3=O)CC2)cc1 (stereo not shown) [Example 7],77,60,,,,,,
O=C1Nc2cc(C(F)(F)F)ccc2SC1CCCN1CCN(c2ccc(F)cc2)CC1 (stereo not shown) [Example 10],45,100,,33 ΔmmHg,,,,
Cc1cccc2c1NC(=O)C(CCCN1CCN(c3cccc(Cl)c3)CC1)S2 (stereo not shown) [Example 14],50,100,,26 ΔmmHg,100,,,
"O=C1Nc2c(ccc3c2CCCC3)SC1CCCN1CCN(c2ccc(F)cc2)CC1 (stereo not shown) [Example 47, 3-[3-[4-(4-fluorophenyl)-1-piperazinyl]propyl]-7,8,9,10-tetrahydro-1H-naphtho[2,1-b][1,4]thiazin-2(3H)-one.hydrochloride]",,,,35 ΔmmHg,,,,
"Cc1cc2c(cc1C)SC(CCCN1CCN(c3ccc(F)cc3)CC1)C(=O)N2 (stereo not shown) [Example 1, 2-[3-[4-(4-fluorophenyl)-1-piperazinyl]propyl]-6,7-dimethyl-2H-1,4-benzothiazin-3(4H)-one]",50,,,35 ΔmmHg,66,100,,
Cc1cccc2c1NC(=O)C(CCCN1CCN(c3ccc(Cl)cc3)CC1)S2 (stereo not shown) [Example 15],40,100,20,,30,,,
CCc1cccc2c1NC(=O)C(CCCN1CCN(c3ccc(F)cc3)CC1)S2 (stereo not shown) [Example 41],,,,23 ΔmmHg,,,,

SMILES,inhibition at 10 µM [1] [%],inhibition at 10 µM [2] [%],inhibition at 10 µM [3] [%],Antihypertensive effect (difference of blood pressure before and after medication) ([4]; 30 mg/Kg oral),inhibition at 1 µM [5] [%],inhibition at 10 µM ([2]; 0.25 h) [%],Antihypertensive effect (difference of blood pressure before and after medication) ([4]; 10 mg/Kg oral),Antihypertensive effect (difference of blood pressure before and after medication) ([4]; 60 mg/Kg oral)
"O=C1Nc2ccccc2SC1CCCCN1CCN(c2ccc(F)cc2)CC1 (stereo not shown) [Example 38, 2-[4-[4-(4-fluorophenyl)-1-piperazinyl]butyl]-2H-1,4-benzothiazin-3(4H)-one]",30,,,32 ΔmmHg,,100,,
Cc1cccc2c1NC(=O)C(CCCN1CCN(c3cccc(C(F)(F)F)c3)CC1)S2 (stereo not shown) [Example 19],55,100,,,,,,
"COc1ccccc1N1CCN(CCCC2Sc3ccccc3NC2=O)CC1 (stereo not shown) [Example 25, 2-[3-[4-(2-methoxyphenyl)-1-piperazinyl]propyl]-2H-1,4-benzothiazin-3(4H)-one]",10,,84,66 ΔmmHg,,100,,
COc1ccc2c(c1)SC(CCCN1CCN(c3ccccc3OC)CC1)C(=O)N2 (stereo not shown) [Example 6],26,100,91,,,,64 ΔmmHg,
CN1C(=O)C(CCN2CCN(c3ccccc3)CC2)Sc2ccccc21 (stereo not shown) [Example 31],40,100,62,,,,,
COc1ccccc1N1CCN(CCCC2Sc3cc(C)c(C)cc3NC2=O)CC1 (stereo not shown) [Example 23],40,100,,48 ΔmmHg,,,,
COc1ccccc1N1CCN(CCCC2Sc3cccc(C)c3NC2=O)CC1 (stereo not shown) [Example 16],33,100,70,,,,,
COc1ccccc1N1CCN(CCC2Sc3ccccc3N(C)C2=O)CC1 (stereo not shown) [Example 32],,100,88,,,,,30 ΔmmHg
O=C1Nc2ccccc2SC1CCN1CCN(c2ccc(F)cc2)CC1 (stereo not shown) [Example 26],60,,,26 ΔmmHg,,60,,
COc1ccc2c(c1)SC(CCCN1CCN(c3ccccc3)CC1)C(=O)N2 (stereo not shown) [Example 5],10,100,100,,,,49 ΔmmHg,
Cc1ccccc1N1CCN(CCCC2Sc3cccc(C)c3NC2=O)CC1 (stereo not shown) [Example 17],11,100,,26 ΔmmHg,,,,
COc1ccccc1N1CCN(CCCC2Sc3cc(Cl)ccc3NC2=O)CC1 (stereo not shown) [Example 9],40,100,44,,,,,35 ΔmmHg
Cc1cccc2c1NC(=O)C(CCCN1CCN(c3ccccc3)CC1)S2 (stereo not shown) [Example 13],40,100,92,,,,,36 ΔmmHg
O=C1Nc2ccccc2SC1CCCN1CCN(c2ccc(F)cc2)CC1 (stereo not shown) [Example 3],53,100,,,,,,
COc1ccccc1N1CCN(CCCC2Sc3cccc(OC)c3NC2=O)CC1 (stereo not shown) [Example 4],18,100,12,,,,,
Cc1cccc(N2CCN(CCCC3Sc4cccc(C)c4NC3=O)CC2)c1 (stereo not shown) [Example 18],50,100,,,,,,
COc1cccc2c1NC(=O)C(CCCN1CCN(c3ccccc3)CC1)S2 (stereo not shown) [Example 24],20,100,66,,,,,
COc1ccc2c(c1)SC(CCN1CCN(c3ccccc3)CC1)C(=O)N2 (stereo not shown) [Example 29],15,96,73,,,,38 ΔmmHg,
